The target in one test is T1, AMPKa2 (Homo sapiens, UniProt P54646).
T1 construct: capturing and identification of kinases from mixed HeLa placenta lysates; endogenous in cells; host or cells: mixed lysate of HeLa cells and placenta tissue
Description: Kinobeads competition binding, HeLa Placenta lysate mix. Particulars: 10 μM free compound. As for the experimental part: (§1) To one aliquot of cell lysate 10 μM of the free compound (FIG. 3, CZC31326) was added and allowed to bind to proteins in the lysate. Then the affinity matrix with the immobilized compound was added to capture proteins that were not interacting with the previously added free compound. Beads were separated from the lysate and bead bound proteins were eluted in SDS sample buffer and subsequently separated by SDS-Polyacrylamide gel electrophoresis (FIG. 10). Suitable gel bands were cut out and subjected to in-gel proteolytic digestion with trypsin. The second lysate aliquot was processed identically, however no free compound was added (DMSO solvent control). Peptides originating from samples 1 and 2 were labeled with iTRAQ reagents (iTRAQ 114 and iTRAQ 117) and the combined samples were analyzed with a nano-flow liquid chromatography system coupled online to a tandem mass spectrometer (LC-MS/MS) experiment followed by iTRAQ reporter ion quantification in the MS/MS spectra as described in Example 2.

For the next test, the target named is T2, CaMKK1 (Homo sapiens, UniProt Q8N5S9).
T2 construct: capturing and identification of kinases from mixed HeLa placenta lysates; endogenous in cells; host or cells: mixed lysate of HeLa cells and placenta tissue
T2 sequence (Q8N5S9 whole entry): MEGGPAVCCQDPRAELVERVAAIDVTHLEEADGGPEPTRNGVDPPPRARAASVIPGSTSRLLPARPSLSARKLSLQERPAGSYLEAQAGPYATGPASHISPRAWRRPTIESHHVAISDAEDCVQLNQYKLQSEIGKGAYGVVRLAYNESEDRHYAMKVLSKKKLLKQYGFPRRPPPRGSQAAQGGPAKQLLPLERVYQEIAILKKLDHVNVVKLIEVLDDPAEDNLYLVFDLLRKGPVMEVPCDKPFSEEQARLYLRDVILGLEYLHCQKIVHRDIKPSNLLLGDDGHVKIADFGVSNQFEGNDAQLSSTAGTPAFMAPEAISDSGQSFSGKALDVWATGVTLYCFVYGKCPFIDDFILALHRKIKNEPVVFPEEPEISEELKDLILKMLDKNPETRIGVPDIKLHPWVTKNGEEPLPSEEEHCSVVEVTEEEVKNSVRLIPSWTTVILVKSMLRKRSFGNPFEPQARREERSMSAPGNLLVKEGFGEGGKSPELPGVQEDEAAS
The test is described as above. The note with it: 10 μM free compound. As for the experimental part:
as §1

The target in another test is T3, FAK (Homo sapiens, UniProt Q05397).
T3 construct: capturing and identification of kinases from mixed HeLa placenta lysates; endogenous in cells; host or cells: mixed lysate of HeLa cells and placenta tissue
Described as above. Particulars: 10 μM free compound. As for the experimental part: as §1

A further test has as its target T4, FLT4 (Homo sapiens, UniProt P35916).
T4 construct: capturing and identification of kinases from mixed HeLa placenta lysates; endogenous in cells; host or cells: mixed lysate of HeLa cells and placenta tissue
The description is as above. Particulars: 10 μM free compound. As for the experimental part:
as §1

A further test has as its target T5, KDR (Homo sapiens, UniProt P35968).
T5 construct: capturing and identification of kinases from mixed HeLa placenta lysates; endogenous in cells; host or cells: mixed lysate of HeLa cells and placenta tissue
Described as above. Particulars: 10 μM free compound. As for the experimental part:
as §1

The target in a further test is T6, MAP3K6 (Homo sapiens, UniProt O95382).
T6 construct: capturing and identification of kinases from mixed HeLa placenta lysates; endogenous in cells; host or cells: mixed lysate of HeLa cells and placenta tissue
The test is described as above. The note with it: 10 μM free compound. As for the experimental part:
as §1

The target in the next test is T7, MAP3K7 (Homo sapiens, UniProt O43318).
T7 construct: capturing and identification of kinases from mixed HeLa placenta lysates; endogenous in cells; host or cells: mixed lysate of HeLa cells and placenta tissue
The test is described as above. The note with it: 10 μM free compound. As for the experimental part:
as §1

For another test, the target named is T8, MRCKa (Homo sapiens, UniProt Q5VT25).
T8 construct: capturing and identification of kinases from mixed HeLa placenta lysates; endogenous in cells; host or cells: mixed lysate of HeLa cells and placenta tissue
T8 sequence (Q5VT25 whole entry): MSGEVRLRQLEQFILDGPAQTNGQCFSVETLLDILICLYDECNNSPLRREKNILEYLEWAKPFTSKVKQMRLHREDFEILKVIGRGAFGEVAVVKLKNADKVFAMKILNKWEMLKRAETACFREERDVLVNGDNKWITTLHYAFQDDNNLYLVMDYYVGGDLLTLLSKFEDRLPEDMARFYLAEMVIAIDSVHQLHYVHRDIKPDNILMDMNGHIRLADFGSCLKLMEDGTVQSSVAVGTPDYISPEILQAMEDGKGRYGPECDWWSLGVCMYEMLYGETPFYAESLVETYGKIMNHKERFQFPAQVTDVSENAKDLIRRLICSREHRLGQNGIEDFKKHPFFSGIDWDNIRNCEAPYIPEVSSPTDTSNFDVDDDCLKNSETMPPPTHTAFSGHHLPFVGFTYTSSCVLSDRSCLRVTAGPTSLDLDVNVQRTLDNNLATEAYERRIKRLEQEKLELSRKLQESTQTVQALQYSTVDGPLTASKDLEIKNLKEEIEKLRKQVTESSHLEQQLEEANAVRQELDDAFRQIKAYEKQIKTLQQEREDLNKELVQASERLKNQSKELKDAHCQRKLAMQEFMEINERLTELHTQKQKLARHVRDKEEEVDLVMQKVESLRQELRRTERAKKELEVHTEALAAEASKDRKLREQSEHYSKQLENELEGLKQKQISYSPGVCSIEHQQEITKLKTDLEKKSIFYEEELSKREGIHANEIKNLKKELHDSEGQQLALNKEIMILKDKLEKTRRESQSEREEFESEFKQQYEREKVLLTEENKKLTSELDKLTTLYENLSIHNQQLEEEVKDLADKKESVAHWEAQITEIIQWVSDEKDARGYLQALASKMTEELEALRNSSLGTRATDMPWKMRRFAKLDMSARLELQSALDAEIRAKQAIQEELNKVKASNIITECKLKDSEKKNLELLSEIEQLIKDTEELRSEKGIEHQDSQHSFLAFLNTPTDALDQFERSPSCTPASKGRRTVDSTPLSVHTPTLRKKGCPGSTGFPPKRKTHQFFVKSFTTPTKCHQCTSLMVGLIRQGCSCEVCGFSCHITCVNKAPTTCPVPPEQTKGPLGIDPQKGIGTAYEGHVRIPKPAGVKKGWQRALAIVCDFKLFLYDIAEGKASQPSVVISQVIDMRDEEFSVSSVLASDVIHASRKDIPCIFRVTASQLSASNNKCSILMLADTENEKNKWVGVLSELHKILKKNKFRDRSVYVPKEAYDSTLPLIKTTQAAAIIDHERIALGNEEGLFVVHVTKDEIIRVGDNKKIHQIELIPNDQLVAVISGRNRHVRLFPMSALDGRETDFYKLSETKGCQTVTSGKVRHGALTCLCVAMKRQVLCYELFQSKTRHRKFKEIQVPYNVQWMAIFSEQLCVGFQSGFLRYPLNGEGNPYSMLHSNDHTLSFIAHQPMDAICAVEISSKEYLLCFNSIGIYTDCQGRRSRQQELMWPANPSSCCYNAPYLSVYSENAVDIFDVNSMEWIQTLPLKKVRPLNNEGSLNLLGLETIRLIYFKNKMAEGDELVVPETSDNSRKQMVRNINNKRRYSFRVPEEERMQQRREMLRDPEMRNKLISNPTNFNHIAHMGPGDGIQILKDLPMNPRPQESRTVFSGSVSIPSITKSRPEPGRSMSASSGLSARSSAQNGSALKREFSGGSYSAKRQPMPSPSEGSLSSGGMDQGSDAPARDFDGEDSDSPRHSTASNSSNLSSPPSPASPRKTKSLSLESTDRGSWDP
The test is described as above. The note with it: 10 μM free compound. Here is the method:
as §1

A further test deals with T9, MRCKb (Homo sapiens, UniProt Q9Y5S2).
T9 construct: capturing and identification of kinases from mixed HeLa placenta lysates; endogenous in cells; host or cells: mixed lysate of HeLa cells and placenta tissue
The test is described as above. Particulars: 10 μM free compound. As for the experimental part: as §1

The target in a further test is T10, PKG1 (Homo sapiens, UniProt Q13976).
T10 construct: capturing and identification of kinases from mixed HeLa placenta lysates; endogenous in cells; host or cells: mixed lysate of HeLa cells and placenta tissue
T10 sequence (Q13976 whole entry): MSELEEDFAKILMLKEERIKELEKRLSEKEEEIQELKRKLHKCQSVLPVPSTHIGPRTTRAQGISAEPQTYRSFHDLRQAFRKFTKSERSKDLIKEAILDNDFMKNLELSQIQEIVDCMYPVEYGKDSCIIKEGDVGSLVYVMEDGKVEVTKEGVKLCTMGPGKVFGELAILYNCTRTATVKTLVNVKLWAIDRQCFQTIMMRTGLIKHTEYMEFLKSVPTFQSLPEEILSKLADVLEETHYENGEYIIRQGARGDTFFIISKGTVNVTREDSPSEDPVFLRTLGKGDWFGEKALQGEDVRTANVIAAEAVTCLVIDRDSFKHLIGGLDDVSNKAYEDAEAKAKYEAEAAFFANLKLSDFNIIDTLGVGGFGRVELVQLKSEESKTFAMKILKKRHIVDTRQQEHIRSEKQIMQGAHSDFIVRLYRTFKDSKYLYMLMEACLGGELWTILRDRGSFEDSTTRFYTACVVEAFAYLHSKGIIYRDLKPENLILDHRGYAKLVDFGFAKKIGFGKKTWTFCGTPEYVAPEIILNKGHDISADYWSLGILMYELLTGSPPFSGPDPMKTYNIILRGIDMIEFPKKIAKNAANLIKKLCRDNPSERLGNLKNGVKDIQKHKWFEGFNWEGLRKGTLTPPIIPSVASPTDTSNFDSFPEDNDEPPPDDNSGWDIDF
Described as above. Particulars: 10 μM free compound. Here is the method: as §1

The target in another test is T11, SRC (Homo sapiens, UniProt P12931).
T11 construct: capturing and identification of kinases from mixed HeLa placenta lysates; endogenous in cells; host or cells: mixed lysate of HeLa cells and placenta tissue
T11 sequence (P12931 whole entry): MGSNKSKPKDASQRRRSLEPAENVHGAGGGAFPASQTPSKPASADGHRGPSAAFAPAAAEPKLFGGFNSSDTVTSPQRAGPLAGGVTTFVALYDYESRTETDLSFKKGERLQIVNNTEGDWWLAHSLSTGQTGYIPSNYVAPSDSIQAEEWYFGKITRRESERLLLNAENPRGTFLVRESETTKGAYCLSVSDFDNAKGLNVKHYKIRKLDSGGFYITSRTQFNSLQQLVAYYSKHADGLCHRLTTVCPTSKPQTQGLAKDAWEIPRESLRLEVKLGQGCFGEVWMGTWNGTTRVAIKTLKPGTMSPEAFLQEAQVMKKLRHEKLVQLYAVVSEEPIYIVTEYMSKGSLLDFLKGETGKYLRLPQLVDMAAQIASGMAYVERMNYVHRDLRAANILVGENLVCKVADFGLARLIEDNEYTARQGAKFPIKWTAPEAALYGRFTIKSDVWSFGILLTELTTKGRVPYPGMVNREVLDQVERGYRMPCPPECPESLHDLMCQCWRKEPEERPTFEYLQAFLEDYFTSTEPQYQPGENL
The test is described as above. The note with it: 10 μM free compound. Here is the method:
as §1

Another test addresses T12, TIE2 (Homo sapiens, UniProt Q02763).
T12 construct: capturing and identification of kinases from mixed HeLa placenta lysates; endogenous in cells; host or cells: mixed lysate of HeLa cells and placenta tissue
The description is as above. The note with it: 10 μM free compound. Here is the method:
as §1

For a further test, the target named is T13, TNK1 (Homo sapiens, UniProt Q13470).
T13 construct: capturing and identification of kinases from mixed HeLa placenta lysates; endogenous in cells; host or cells: mixed lysate of HeLa cells and placenta tissue
Described as above. Particulars: 10 μM free compound. Here is the method:
as §1

In a further test the target is T14, IKKe (Homo sapiens, UniProt Q14164).
T14 sequence (Q14164 1-716): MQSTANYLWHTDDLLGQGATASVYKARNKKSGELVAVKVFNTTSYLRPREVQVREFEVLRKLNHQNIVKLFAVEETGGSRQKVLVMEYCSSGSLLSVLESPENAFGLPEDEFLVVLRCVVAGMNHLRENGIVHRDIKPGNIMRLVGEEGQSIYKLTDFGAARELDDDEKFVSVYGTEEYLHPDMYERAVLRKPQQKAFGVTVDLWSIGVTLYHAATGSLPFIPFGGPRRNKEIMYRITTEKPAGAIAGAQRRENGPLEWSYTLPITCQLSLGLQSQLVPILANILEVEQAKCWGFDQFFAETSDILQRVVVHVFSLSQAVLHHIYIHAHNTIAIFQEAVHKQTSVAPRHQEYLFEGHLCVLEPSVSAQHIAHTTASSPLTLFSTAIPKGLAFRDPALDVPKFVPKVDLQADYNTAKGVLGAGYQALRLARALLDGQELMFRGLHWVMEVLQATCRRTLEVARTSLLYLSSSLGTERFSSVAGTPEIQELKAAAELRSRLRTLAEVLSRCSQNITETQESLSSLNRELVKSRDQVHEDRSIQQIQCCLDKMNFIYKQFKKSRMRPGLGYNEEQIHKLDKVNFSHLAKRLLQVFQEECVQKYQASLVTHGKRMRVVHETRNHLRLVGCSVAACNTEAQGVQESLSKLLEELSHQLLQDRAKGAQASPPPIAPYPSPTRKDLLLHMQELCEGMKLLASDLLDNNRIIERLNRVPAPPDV
The test is described as follows: Kinobeads competition binding, L-363 cell lysate. Further details: endogenous in cells; host or cells: L-363 (treated with MG132 before harvest). The note with it: 10 μM free compound, L-363 lysate. As for the experimental part: as §1, with “8).” for “10).”
For this experiment the human plasma cell leukaemia line L-363 was used (German Collection of Microorganisms and Cell Cultures, DSMZ number ACC49, Braunschweig, Germany). Cells were treated for three hours with 20 μM of the proteasome inhibitor MG132 (Z-Leu-Leu-Leu-al, Sigma C2211) prior to cell harvesting.

T4 sequence (P35916 25-1363): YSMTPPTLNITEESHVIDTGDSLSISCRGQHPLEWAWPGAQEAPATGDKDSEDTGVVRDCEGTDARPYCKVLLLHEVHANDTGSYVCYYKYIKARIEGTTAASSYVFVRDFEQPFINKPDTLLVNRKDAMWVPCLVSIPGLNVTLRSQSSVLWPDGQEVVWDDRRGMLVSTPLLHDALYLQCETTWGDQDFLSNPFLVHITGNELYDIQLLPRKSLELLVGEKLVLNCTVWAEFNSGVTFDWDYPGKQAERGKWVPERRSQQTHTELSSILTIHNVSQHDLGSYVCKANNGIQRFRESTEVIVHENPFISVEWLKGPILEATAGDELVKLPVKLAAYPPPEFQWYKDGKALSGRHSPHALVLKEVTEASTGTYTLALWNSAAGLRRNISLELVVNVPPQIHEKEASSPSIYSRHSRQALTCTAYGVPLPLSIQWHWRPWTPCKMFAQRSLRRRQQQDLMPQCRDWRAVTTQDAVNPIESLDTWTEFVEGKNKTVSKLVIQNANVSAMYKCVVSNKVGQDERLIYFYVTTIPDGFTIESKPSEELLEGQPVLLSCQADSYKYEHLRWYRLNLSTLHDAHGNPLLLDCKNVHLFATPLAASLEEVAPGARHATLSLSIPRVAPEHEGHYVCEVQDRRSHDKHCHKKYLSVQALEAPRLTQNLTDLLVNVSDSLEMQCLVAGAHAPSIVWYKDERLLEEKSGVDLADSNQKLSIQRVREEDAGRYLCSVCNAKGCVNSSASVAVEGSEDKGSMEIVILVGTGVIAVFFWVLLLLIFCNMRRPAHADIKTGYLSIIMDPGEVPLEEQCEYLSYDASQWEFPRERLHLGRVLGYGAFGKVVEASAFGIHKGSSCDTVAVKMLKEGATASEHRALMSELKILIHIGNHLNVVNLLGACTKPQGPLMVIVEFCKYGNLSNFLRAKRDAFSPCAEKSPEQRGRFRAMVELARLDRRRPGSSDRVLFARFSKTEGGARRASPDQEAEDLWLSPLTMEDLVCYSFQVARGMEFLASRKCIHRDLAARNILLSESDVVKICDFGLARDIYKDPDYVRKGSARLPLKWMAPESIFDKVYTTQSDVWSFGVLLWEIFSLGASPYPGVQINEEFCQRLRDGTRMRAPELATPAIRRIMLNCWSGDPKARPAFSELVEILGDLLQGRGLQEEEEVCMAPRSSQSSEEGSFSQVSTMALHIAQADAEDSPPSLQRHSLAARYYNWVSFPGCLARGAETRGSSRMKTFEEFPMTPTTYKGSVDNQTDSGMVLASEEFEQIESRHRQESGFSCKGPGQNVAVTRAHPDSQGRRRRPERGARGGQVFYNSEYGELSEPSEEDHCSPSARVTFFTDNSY

Take `CS(=O)(=O)Nc1ccccc1Nc1nc(Nc2cccc(OCCN)c2)ncc1Cl` [CZC31326, N-(2-(2-(3-(2-aminoethoxy)phenylamino)-5-chloropyrimidin-4-ylamino)phenyl)methanesulfonamide]: the inhibition at 10 µM on AMPKa2 is 95.2%; on CaMKK1, 94.2%; on FAK, 93.8%; on FLT4 it was 89.3%; on KDR, 90%; at MAP3K6, 84.3%. The inhibition at 10 µM was determined as 82.1% on MAP3K7; 92.1% on MRCKa; 94% on MRCKb; 90.4% on PKG1; 92.2% at SRC; 91.6% at TIE2. In addition, the inhibition at 10 µM at TNK1 is 94.3%; at IKKe it was 89.4%.

For the origin of these results see patent US20120270237A9, “METHODS FOR THE IDENTIFICATION OF KINASE INTERACTING MOLECULES AND FOR THE PURIFICATION OF KINASE PROTEINS” (Cellzone AG, priority 2009, published 2012).
